Reference: PubChem BioAssay AID256 (DTP/NCI, 2004)
Several values for one entry are separate records, joined by “and”; a condition that tells them apart may be missing. Equal values may be shown once. Toxic doses and inconclusive results are not listed. The calls were made as follows: active = survival T/C of 150% or more; inactive = T/C below 125% in these data.

System: CD2F1 mice, L1210 leukemia ip, survival T/C
Experiment: NCI In Vivo Anticancer Drug Screen. Data for tumor model L1210 Leukemia (intraperitoneal) in CD2F1 (CDF1) mice
Conditions: higher = longer survival
Summary of the method: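 Antitumor effect is scored in animals hosting a serially transplanted tumor. Values compare compound-dosed animals against vehicle-only controls as a simple quotient.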

[1] = endpoint: median survival time, dose: 6.25 mg/kg/injection, schedule: Q01DX009 (ip), vehicle: saline with Tween-80
[2] = endpoint: median survival time, dose: 12.5 mg/kg/injection, schedule: Q01DX009 (ip), vehicle: saline with Tween-80
[3] = endpoint: median survival time, dose: 25.0 mg/kg/injection, schedule: Q01DX009 (ip), vehicle: saline with Tween-80
[4] = endpoint: mean survival time, dose: 12.5 mg/kg/injection, schedule: Q01DX005 (ip), vehicle: water
[5] = endpoint: mean survival time, dose: 25.0 mg/kg/injection, schedule: Q01DX005 (ip), vehicle: water
[6] = endpoint: mean survival time, dose: 50.0 mg/kg/injection, schedule: Q01DX005 (ip), vehicle: water
[7] = endpoint: mean survival time, dose: 100.0 mg/kg/injection, schedule: Q01DX005 (ip), vehicle: water
[8] = endpoint: mean survival time, dose: 200.0 mg/kg/injection, schedule: Q01DX005 (ip), vehicle: water
[9] = endpoint: mean survival time, dose: 100.0 mg/kg/injection, schedule: Q01DX009 (ip), vehicle: saline with Tween-80
[10] = endpoint: mean survival time, dose: 200.0 mg/kg/injection, schedule: Q01DX009 (ip), vehicle: saline with Tween-80
[11] = endpoint: mean survival time, dose: 400.0 mg/kg/injection, schedule: Q01DX009 (ip), vehicle: saline with Tween-80
[12] = endpoint: mean survival time, dose: 100.0 mg/kg/injection, schedule: Q04DX002 (ip), vehicle: saline with Tween-80
[13] = endpoint: mean survival time, dose: 200.0 mg/kg/injection, schedule: Q04DX002 (ip), vehicle: saline with Tween-80
[14] = endpoint: mean survival time, dose: 400.0 mg/kg/injection, schedule: Q04DX002 (ip), vehicle: saline with Tween-80

Measured: T/C

O=c1ccc2cc(Cl)cc([N+](=O)[O-])c2o1
inactive: endpoint: mean survival time, dose: 100.0 mg/kg/injection, schedule: Q01DX001 (ip), vehicle: Klucel (hydroxypropylcellulose) (HPC) 102 % of control | endpoint: mean survival time, dose: 200.0 mg/kg/injection, schedule: Q01DX001 (ip), vehicle: Klucel (hydroxypropylcellulose) (HPC) 99 % of control | endpoint: mean survival time, dose: 400.0 mg/kg/injection, schedule: Q01DX001 (ip), vehicle: Klucel (hydroxypropylcellulose) (HPC) 99 % of control

O=[n+]1c2ccccc2n([O-])c2ccccc21.[Cl][Ni][Cl]
inactive: endpoint: median survival time, dose: 1.56 mg/kg/injection, schedule: Q01DX009 (ip), vehicle: saline with Tween-80 98 % of control | endpoint: median survival time, dose: 3.12 mg/kg/injection, schedule: Q01DX009 (ip), vehicle: saline with Tween-80 92 % of control | [1] 103 % of control | [2] 109 % of control | [3] 113 % of control

O=C(OCC1OC(n2ccn(C3OC(COC(=O)c4ccccc4)C(OC(=O)c4ccccc4)C3OC(=O)c3ccccc3)c2=S)C(OC(=O)c2ccccc2)C1OC(=O)c1ccccc1)c1ccccc1 (stereo unspecified)
inactive: [4] 102 % of control | [5] 104 % of control | [6] 94 % of control | [7] 94 % of control | [8] 94 % of control

COC(=O)c1cc(-c2ccc(Cl)cc2)nc2cc(Cl)c(OC)cc12
inactive: endpoint: mean survival time, dose: 100.0 mg/kg/injection, schedule: Q01DX001 (ip), vehicle: saline 92 % of control | endpoint: mean survival time, dose: 200.0 mg/kg/injection, schedule: Q01DX001 (ip), vehicle: saline 87 % of control

CCOC(=O)c1cc(=O)[nH]c2ccc(OC)cc12
inactive: [9] 98 % of control | [10] 104 % of control | [11] 104 % of control

O=C1c2ccccc2SCCC1C(O)c1ccccc1 (stereo unspecified)
inactive: endpoint: mean survival time, dose: 100.0 mg/kg/injection, schedule: Q01DX001 (ip), vehicle: saline with Tween-80 94 % of control | endpoint: mean survival time, dose: 200.0 mg/kg/injection, schedule: Q01DX001 (ip), vehicle: saline with Tween-80 94 % of control | endpoint: mean survival time, dose: 400.0 mg/kg/injection, schedule: Q01DX001 (ip), vehicle: saline with Tween-80 94 % of control

CCC(C)C(NC(=O)OCc1ccccc1)C(=O)ON1C(=O)CCC1=O (stereo unspecified)
inactive: endpoint: mean survival time, dose: 100.0 mg/kg/injection, schedule: Q04DX003 (ip), vehicle: saline sonified 95 % of control | endpoint: mean survival time, dose: 200.0 mg/kg/injection, schedule: Q04DX003 (ip), vehicle: saline sonified 90 % of control | endpoint: mean survival time, dose: 400.0 mg/kg/injection, schedule: Q04DX003 (ip), vehicle: saline sonified 100 % of control

NCc1ccc(-n2cnc3c(=O)[nH]c(N)nc32)cc1
inactive: endpoint: mean survival time, dose: 50.0 mg/kg/injection, schedule: Q04DX002 (ip), vehicle: saline with Tween-80 90 % of control | [12] 107 % of control | [13] 101 % of control

O=[N+]([O-])c1cccn2nc(C3OC(CO)C(O)C3O)nc12 (stereo unspecified)
inactive: [4] 96 % of control | [5] 97 % of control | [6] 94 % of control | [7] 100 % of control

CCC(=O)Oc1ccc(/C=N/NC(N)=S)nc1
inactive: endpoint: mean survival time, dose: 100.0 mg/kg/injection, schedule: Q04DX002 (ip), vehicle: other 108 % of control | endpoint: mean survival time, dose: 178.0 mg/kg/injection, schedule: Q01DX001 (ip), vehicle: other 114 % of control | endpoint: mean survival time, dose: 178.0 mg/kg/injection, schedule: Q04DX003 (ip), vehicle: other 116 % of control | endpoint: mean survival time, dose: 200.0 mg/kg/injection, schedule: Q04DX002 (ip), vehicle: other 123 % of control | endpoint: mean survival time, dose: 266.0 mg/kg/injection, schedule: Q01DX001 (ip), vehicle: other 112 % of control | endpoint: mean survival time, dose: 266.0 mg/kg/injection, schedule: Q04DX003 (ip), vehicle: other 113 % of control | endpoint: mean survival time, dose: 400.0 mg/kg/injection, schedule: Q01DX001 (ip), vehicle: other 118 % of control | endpoint: mean survival time, dose: 400.0 mg/kg/injection, schedule: Q04DX003 (ip), vehicle: other 122 % of control | endpoint: mean survival time, dose: 600.0 mg/kg/injection, schedule: Q01DX001 (ip), vehicle: other 110 % of control | endpoint: mean survival time, dose: 600.0 mg/kg/injection, schedule: Q04DX003 (ip), vehicle: other 119 % of control | endpoint: mean survival time, dose: 900.0 mg/kg/injection, schedule: Q04DX003 (ip), vehicle: other 122 % of control

CC(C)=CCNc1ncnc2c1ncn2C1OC(COP(=O)(O)O)C(O)C1O (stereo unspecified)
inactive: [5] 103 % of control | [6] 104 % of control | [7] 103 % of control | [8] 114 % of control

Cc1ccc(Nc2ccc(O)c3c2C(=O)c2c(O)ccc(Nc4ccc(C)cc4)c2C3=O)cc1
inactive: [9] 88 % of control | [10] 88 % of control | [11] 98 % of control

COc1ccc(/C=N\NC(=O)c2ccccc2)cc1
inactive: [9] 95 % of control | [10] 95 % of control | [11] 86 % of control

Cc1cc(C)c(O)c(C)c1
inactive: endpoint: mean survival time, dose: 50.0 mg/kg/injection, schedule: Q01DX009 (ip), vehicle: Klucel (hydroxypropylcellulose) (HPC) 96 % of control | endpoint: mean survival time, dose: 100.0 mg/kg/injection, schedule: Q01DX009 (ip), vehicle: Klucel (hydroxypropylcellulose) (HPC) 93 % of control | endpoint: mean survival time, dose: 200.0 mg/kg/injection, schedule: Q01DX009 (ip), vehicle: Klucel (hydroxypropylcellulose) (HPC) 93 % of control

CC(O)C1(O)C(O)CC(OC2c3cc4c(c(O)c3[C@@H]3C[C@@]2(C)OC32C=c3cc[nH]c3=N2)C(=O)c2cccc(O)c2C4=O)OC1C (stereo partly specified)
inactive: [1] 114 % of control | [2] 118 % of control | [3] 113 % of control | endpoint: median survival time, dose: 50.0 mg/kg/injection, schedule: Q01DX009 (ip), vehicle: saline with Tween-80 97 % of control

CC(=O)Nc1ccc(C)c(Cl)c1
inactive: [9] 96 % of control | endpoint: mean survival time, dose: 100.0 mg/kg/injection, schedule: Q04DX003 (ip), vehicle: saline with Tween-80 101 % of control | [10] 94 % of control | endpoint: mean survival time, dose: 200.0 mg/kg/injection, schedule: Q04DX003 (ip), vehicle: saline with Tween-80 103 % of control | [11] 88 % of control | endpoint: mean survival time, dose: 400.0 mg/kg/injection, schedule: Q04DX003 (ip), vehicle: saline with Tween-80 101 % of control

NC(Cc1cc(I)c(Oc2cc(I)c(O)c(I)c2)c(I)c1)C(=O)O (stereo unspecified)
inactive: endpoint: mean survival time, dose: 0.04 mg/kg/injection, schedule: Q01DX009 (ip), vehicle: saline + alcohol 96 % of control | endpoint: mean survival time, dose: 0.04 mg/kg/injection, schedule: Q01DX009 (ip), vehicle: saline 88 % of control and 96 % of control | endpoint: mean survival time, dose: 0.16 mg/kg/injection, schedule: Q01DX009 (ip), vehicle: saline + alcohol 102 % of control | endpoint: mean survival time, dose: 0.16 mg/kg/injection, schedule: Q01DX009 (ip), vehicle: saline 91 % of control and 98 % of control | endpoint: mean survival time, dose: 0.25 mg/kg/injection, schedule: Q01DX009 (ip), vehicle: saline 93 % of control | endpoint: mean survival time, dose: 0.63 mg/kg/injection, schedule: Q01DX009 (ip), vehicle: saline 94 % of control | endpoint: mean survival time, dose: 0.64 mg/kg/injection, schedule: Q01DX009 (ip), vehicle: saline + alcohol 94 % of control | endpoint: mean survival time, dose: 0.64 mg/kg/injection, schedule: Q01DX009 (ip), vehicle: saline 87 % of control and 94 % of control | endpoint: mean survival time, dose: 1.0 mg/kg/injection, schedule: Q01DX009 (ip), vehicle: saline 96 % of control | endpoint: mean survival time, dose: 2.0 mg/kg/injection, schedule: Q01DX009 (ip), vehicle: saline 88 % of control | endpoint: mean survival time, dose: 2.5 mg/kg/injection, schedule: Q01DX009 (ip), vehicle: saline + alcohol 93 % of control | endpoint: mean survival time, dose: 2.5 mg/kg/injection, schedule: Q01DX009 (ip), vehicle: saline 91 % of control and 92 % of control and 94 % of control | endpoint: mean survival time, dose: 8.0 mg/kg/injection, schedule: Q01DX009 (ip), vehicle: saline 86 % of control and 88 % of control and 90 % of control | endpoint: mean survival time, dose: 10.0 mg/kg/injection, schedule: Q01DX009 (ip), vehicle: saline + alcohol 94 % of control | endpoint: mean survival time, dose: 10.0 mg/kg/injection, schedule: Q01DX009 (ip), vehicle: saline 89 % of control and 90 % of control and 92 % of control | endpoint: mean survival time, dose: 16.0 mg/kg/injection, schedule: Q01DX009 (ip), vehicle: saline 86 % of control and 89 % of control | endpoint: mean survival time, dose: 32.0 mg/kg/injection, schedule: Q01DX009 (ip), vehicle: saline 83 % of control and 89 % of control | endpoint: mean survival time, dose: 40.0 mg/kg/injection, schedule: Q01DX009 (ip), vehicle: saline 88 % of control | endpoint: mean survival time, dose: 64.0 mg/kg/injection, schedule: Q01DX009 (ip), vehicle: saline 87 % of control and 89 % of control | endpoint: mean survival time, dose: 128.0 mg/kg/injection, schedule: Q01DX009 (ip), vehicle: saline 87 % of control and 90 % of control

Cc1ccccc1NC(=O)Oc1ccc(Cl)cc1C
inactive: [12] 101 % of control | [13] 93 % of control | [14] 97 % of control

CCOC(=O)/C(C#N)=N/Nc1cccc(Cl)c1Cl
inactive: [12] 96 % of control | [13] 96 % of control | [14] 100 % of control
